Source: EPA's ToxValDB 9.5 (doi:10.2903/j.efsa.2017.4874)
≈ marks a conversion by molar mass, not a printed value.

Assays:
[1] = system: Aphidius rhopalosiphi; assay: LR50; higher = less toxic; details: not reported; mortality
[2] = system: Anas platyrhynchos; details: short-term; oral; feed; mortality
[3] = system: Mus musculus; details: chronic
[4] = system: Colinus virginianus; details: for LD50: acute, oral, mortality
[5] = system: Daphnia magna; details: chronic/long-term; duration: 21 days; reproduction
[6] = system: Danio rerio; details: subchronic; duration: 35 days; reproduction
[7] = system: Oryctolagus sp.; details: developmental; development
[8] = system: Tagia sp.; details: chronic/long-term; growth
[9] = system: Folsomia candida; details: chronic/long-term; mortality
[10] = system: Apis mellifera; details: acute, mortality
[11] = system: Oncorhynchus mykiss; details: acute; duration: 96 hours; mortality
[12] = system: Rattus norvegicus; details: oral

## O=C(Nc1ccccc1)Nc1ccnc(Cl)c1 [Forchlorfenuron]
[1]
  LR50: > 10 g/ha
[2]
  LD50: > 3120 mg/kg-day
[3]; duration: 24 months, histopathology: neoplastic
  NOAEL: 5 mg/kg-day
[3]; histopathology: nonneoplastic
  NOAEL: 4.9 mg/kg-day
[4]; diet
  LD50: > 3120 mg/kg-day
[4]
  LD50: > 2250 mg/kg-day
[4]; reproduction developmental
  NOEC: 88.4 mg/kg-day
[5]
  NOEC: 1.96 mg/L
[6]
  NOEC: 1.01 mg/L
[7]
  NOAEL: 50 mg/kg-day
[8]
  NOEC: 0.3 mg/kg
[9]
  NOEC: 3.72 mg/kg
[10]; dermal
  LD50: > 30 µg/piece
[10]; oral, unspecified
  LD50: > 34.1 µg/piece
[11]
  LC50: 1.93 µg/mL (≈ 7.79 µM)
[12]; acute, mortality
  LD50: 4920 mg/kg-day
[12]; reproduction developmental, diet, body weight
  NOAEL: 11 mg/kg-day
[12]; subchronic, duration: 90 days, organ weight
  NOAEL: 16.2 mg/kg-day
